This is an account of results in PMC12290687, “Phenotypic Screening of the MMV Global Health Priority Box Identifies Selective Compounds with Anti-Toxoplasma gondii Activity” (ACS Omega, 2025).

Molecules are shown by their SMILES. Where two headings read alike, the source gives them in different places.

Series [1] in a line: Cytotoxicity assay (resazurin reduction) in uninfected HFFs. Conditions: human. It is filed as cell-based, human. The protocol: (§1) Toxoplasma gondii RH-2F1 tachyzoites, which express β-galactosidase, were maintained in human foreskin fibroblasts (HFFs). HFFs were cultured in Dulbecco’s Modified Eagle Medium (DMEM) supplemented with 10% fetal bovine serum (FBS), 2 mM L-glutamine, and 40 μg/mL gentamicin (referred to as D10) and incubated at 37 °C in a 5% CO2 humidified atmosphere. For infection assays, confluent monolayers were maintained in DMEM with 2% FBS (D2) prior to parasite inoculation.
(§2) For in vitro assays in 96-well plates, HFFs were seeded at 5 × 10^3 cells/well in the D10 medium and incubated for 12–16 h to allow adherence. […] For antiparasitic assays, HFFs were infected with RH-2F1 tachyzoites at a multiplicity of infection (MOI) of 1:1 for 3 h.
(§3) The resazurin assay was used to evaluate the compound cytotoxicity in uninfected HFFs. Following 72 h treatment, 100 μM resazurin was added to each well and incubated for 4 h at 37 °C. Fluorescence was measured using excitation/emission wavelengths of 565/590 nm. Controls included untreated cells (viability control), 1% DMSO (solvent control), 50 μM pyrimethamine (reference drug), and blank wells (no cells). Each condition was tested in duplicate in three independent experiments.

Series [2] concerns P. falciparum ring stages. Conditions: literature report, reference mark not given; cited from earlier work.
Series [3] concerns T. gondii intracellular tachyzoites. Put plainly: microbe, parasite or virus in culture. Conditions: half effective concentration against T. gondii intracellular tachyzoites in HFF, MOI 1:1, 72 h, duplicates in three independent experiments. It is filed as cell-based, Toxoplasma gondii RH-2F1. The protocol:
as §1, §2
Parasite proliferation was assessed by quantifying β-galactosidase activity, as previously described. Briefly, after the 72 h incubation, cells were lysed in 100 μL of lysis buffer (100 mM HEPES pH 7.5, 1 mM MgSO4, 0.1% Triton X-100, 5 mM DTT) for 15 min at room temperature. […] Following a 30 min incubation at 37 °C, absorbance was measured at 570 nm using a Varioskan LUX microplate reader (Thermo Scientific). Each assay included viability controls (untreated infected cells), solvent controls (1% DMSO), a positive control (1 μM pyrimethamine), and experimental blanks (no cells). All conditions were tested in two biological replicates in three independent experiments.
Compounds from the GHPB library were screened at a final concentration of 1 μM in infected HFF monolayers, using the β-galactosidase assay as a readout for parasite viability after 72 h.

In series [4] the test system is human foreskin fibroblasts (HFF). The series can be described thus: Cytotoxicity assay (resazurin reduction) in uninfected HFFs. The format is cell-based. Conditions: half cytotoxic concentration against HFF, 72 h, highest concentration tested 50 μM. The protocol: as §1, §2, §3
Series [5] has as its system Plasmodium liver stages. The settings on record: literature report, reference mark not given; cited from earlier work.
On the set-up of series [6]: method as in Timoumi et al. The settings on record: doses of 350–500 mg/kg; ref Timoumi et al.; cited from earlier work.
Series [7] deals with HepG2 cell line. On the set-up: method as in Timoumi et al. The settings on record: ref Timoumi et al.; cited from earlier work.
The subject of series [8] is HEK293 cell line. On the set-up: method as in Timoumi et al. The settings on record: ref Timoumi et al.; cited from earlier work.
For series [9], the system named is VERO/RAW cells. On the set-up: method as in Tali et al. The settings on record: ref Tali et al.; cited from earlier work.
Series [10] deals with H. contortus. On the set-up: method as in Shanley et al. (2024). Conditions: ref Shanley et al. (2024); cited from earlier work.
The mark [11] stands for this setting: uninfected human foreskin fibroblasts (HFF), half cytotoxic concentration against HFF, 72 h, highest concentration tested 50 μM, read-out: CC50 (μM) ± SD.

In the case of `CCOc1ccccc1NC(=O)Cn1c(=O)n(Cc2ccccc2)c(=O)c2c(C)c(C(=O)N(C)C)sc21` [MMV006430], in [1] (setting [11]), the CC50 at 72 h was above 50 µM. In addition, in [2], the “time to activity against P. falciparum ring stages (fast-acting)” value was “under 65 h”. Also, in [3] (Toxoplasma gondii), it took 0.3 ± 0.03 µM to reach a half-maximal effect (EC50).

In [4], `O=C(Nc1ccc(Cl)c(C(F)(F)F)c1)Nc1ccc(Cl)c(C(F)(F)F)c1` [MMV027339] yielded a CC50 of 5.51 ± 0.86 µM. Also, the EC50 in series [3] is 0.5 ± 0.02 µM.

On to `CS(=O)(=O)c1ccc(-c2cnn3c2NC(c2cccc(S(=O)(=O)C4CC4)c2)CC3)cc1` (stereo not shown) [MMV674132], for which, in series [1] (setting [11]), the half-maximal cytotoxic concentration (CC50) at 72 h was above 50 µM. The “activity against Plasmodium liver stages” value in [5] is given as “activity”. In series [2], the “time to activity against P. falciparum ring stages (fast-acting)” value is on record as “under 65 h”. The EC50 in series [3] (Toxoplasma gondii) was 0.19 ± 0.04 µM.

On to `O=C(NC(=O)c1ccccc1Cl)Nc1ccc(OC(F)(F)F)cc1` [MMV689404, Triflumuron], for which the “in vivo toxicity finding” value in series [6] was “hepatotoxicity and oxidative stress”. In addition, the CC50 at 72 h in [1] (half cytotoxic concentration against HFF, 72 h, highest concentration tested 50 μM, read-out: CC50 (μM) ± SD) was above 50 µM. Besides, the CC50 in series [7] is 120000 nM; in series [8] it was 200000 nM. This molecule also gave an EC50 in [3] (Toxoplasma gondii) of 0.49 ± 0.03 µM.

Consider `CN(C)C1CC(NC(=O)c2ccc(Nc3nccc(-c4ccc(Cl)c(C(F)(F)F)c4)n3)cc2)C1` (stereo not shown) [MMV884814], for which the CC50 in series [4] amounted to 4.1 ± 1.18 µM. A half-maximal effect in series [3] (EC50) was put at 0.76 ± 0.06 µM.

For the molecule `O=C(Nc1ncccc1O)c1ccc(N2CCOCC2)nc1` [MMV1103183], in series [4], the CC50 is above 50 µM. The same molecule registered an EC50 in series [3] of 0.72 ± 0.39 µM.

For `O=C(Nc1ncccc1O)c1ccc(Cn2cccn2)cc1` [MMV1266067], the CC50 in [4] was above 50 µM. Moreover, in series [3], the EC50 came out at 0.73 ± 0.13 µM.

With `Cn1ccnc1SCC(=O)Nc1ccc(C(=O)Nc2ncccc2O)cc1` [MMV1267536], the CC50 at 72 h in series [1] (setting [11]) came to 29.2 ± 2.79 µM. The “activity against Plasmodium liver stages” value in [5] is on record as “activity”. Besides, in series [3] (Toxoplasma gondii), the EC50 stood at 0.19 ± 0.03 µM.

Turning to `O=C(Nc1ncccc1O)c1ccc(S(=O)(=O)NCCc2cccs2)cc1` [MMV1435700], the CC50 in series [4] was 20 ± 3.8 µM. It took 0.34 ± 0.08 µM to reach a half-maximal effect in [3] (EC50).

As to `Cn1c(O)c(C(=O)Nc2ccc(Cl)c(Cl)c2)c(=O)n(C)c1=O` [MMV1634081], in series [4], the midpoint of cytotoxicity, the CC50, lay at 30.8 ± 4.55 µM. The same molecule yielded a 50% effective concentration (EC50) in [3] of 0.52 ± 0.01 µM.

Regarding `CO/C=C(/C(=O)OC)c1ccccc1COc1c(C)c(-c2ccc(C)cc2C)nn1C` [MMV1794211], the CC50 in [9] was above 10000 nM. Besides, a half-maximal response in [3] (Toxoplasma gondii) (EC50) required 0.01 ± 0.01 µM.

Take `COc1cc(/C=N/c2c(SC(F)(F)F)c(C#N)nn2-c2c(Cl)cc(C(F)(F)F)cc2Cl)ccc1O` [MMV1794214, Vaniliprole]: the CC50 at 72 h in [1] is above 50 µM. This molecule also showed an EC50 in series [3] (Toxoplasma gondii) of 0.07 ± 0.04 µM. Moreover, the “effect on H. contortus” value in series [10] was “impairs motility and larval development”.

Take `CCc1nc(N)nc(N)c1-c1ccc(Cl)cc1` [Pyrimethamine, reference compound]: in series [1] (setting [11]), the CC50 at 72 h is above 50 µM. Further, the EC50 in series [3] (Toxoplasma gondii) came out at 0.38 ± 0.03 µM.
